Experimental data reported in patent US5536645A, “Nutritive medium for the culture of microorganism” (priority 1993, dated 1996).
Where two headings read alike, the source gives them in different places. Blank lines part the entries; values can stand above or below the compound they belong to.

How the values were obtained:
Format in all cases: cell-based
[1] = test system: S. epidermidis; experiment: microbe, parasite or virus in culture; settings: for MIC: Staphylococcus epidermidis, 12 h, read-out: Equivalent MIC
Procedure: (§1) With the determination of the sensitivity to antibiotics in mind, a suspension of 0.5 MF (Mac Farland) in physiological water was prepared from bacterial colonies selected in Petri dishes, reading being carried out on an ATB 1550 densitometer marketed by BIOMERIEUX (ATB trade mark). The suspension obtained was respectively diluted to 1/100th in the medium of the invention and Mueller-Hinton medium. VITEK cards (VITEK trade mark) containing different antibiotics at 10 concentrations were filled in vacuo into a VITEK apparatus marketed by BIOMERIEUX-VITEK. The cards were incubated for 12 hours in a VITEK incubator/reader marketed by BIOMERIEUX-VITEK. The growth kinetics were visualized and interpreted and an equivalent MIC was determined (equivalent MIC: equivalent minimum inhibitory concentration, that is to say the smallest concentration for which no bacterial growth is detected by the apparatus).
(§2) IST refers to the medium of the invention and MH signifies Mueller-Hinton medium.
(§3) *A range of concentration, of ratio 2, was tested for each antibiotic in
(§4) each of the abovementioned concentration margins.
(§5) S, I and R respectively signify "sensitive", "intermediate" and "resistant" with reference to the critical concentrations defined by the NCCLS (National Committee for Clinical Laboratory Standards).

[2] = test system: S. aureus; experiment: microbe, parasite or virus in culture; settings: for MIC: Staphylococcus aureus, read-out: Equivalent MIC
Procedure: as §1, §2, §3, §4, §5

[3] = test system: K. pneumoniae; experiment: Equivalent MIC of antibiotics in VITEK cards, gram-negative bacteria (Table 3); settings: for MIC: Klebsiella pneumoniae, 12 h
Procedure: as §1, §2, §5

[4] = test system: S. marcescens; experiment: as above; settings: for MIC: Serratia marcescens, 12 h, read-out: Equivalent MIC
Procedure: as §1, §2, §5

[5] = test system: E. faecalis; experiment: Equivalent MIC of antibiotics in VITEK cards, gram-positive bacteria (Table 4); settings: for MIC: Enterococcus faecalis, 12 h
Procedure: as §1, §2, §3, §4, §5

[6] = ATCC29213, 12 h, ATCC 29213, IST medium
[7] = ATCC29213, 12 h, ATCC 29213, MH medium

SMILES: Cc1onc(-c2ccccc2)c1C(=O)N[C@@H]1C(=O)N2[C@@H]1SC(C)(C)[C@@H]2C(=O)O [oxacillin]
NCCLS Category ([1]; CDC 2234, IST medium): S
NCCLS Category ([1]; CDC 2234, MH medium): R
MIC ([1]; CDC 2234, IST medium): 2 µg/mL
MIC ([1]; CDC 2234, MH medium): 4 µg/mL
NCCLS Category ([2]; ATCC 29213, IST medium): S
NCCLS Category ([2]; ATCC 29213, MH medium): S
NCCLS Category ([2]; CDC 2194, IST medium): S
NCCLS Category ([2]; CDC 2194, MH medium): S
NCCLS Category ([2]; CDC 2215, IST medium): S
NCCLS Category ([2]; CDC 2215, MH medium): S
MIC ([2]; 12 h, CDC 2194, IST medium): 1 µg/mL
MIC ([2]; 12 h, CDC 2194, MH medium): < 0.5 µg/mL
MIC ([2]; 12 h, CDC 2215, IST medium): 1 µg/mL
MIC ([2]; 12 h, CDC 2215, MH medium): < 0.5 µg/mL
MIC [2, 6]: < 0.25 µg/mL
MIC [2, 7]: < 0.25 µg/mL

MIC ([3]; API 88.03.111, IST medium): 1 µg/mL
MIC ([3]; API 88.03.111, MH medium): 1 µg/mL
MIC ([3]; API 88.08.056, IST medium): 4 µg/mL
MIC ([3]; API 88.08.056, MH medium): 4 µg/mL
MIC ([3]; CDC 2279, IST medium): 0.25 µg/mL
MIC ([3]; CDC 2279, MH medium): 0.25 µg/mL
MIC ([4]; API 81.45.111, IST medium): 4 µg/mL
MIC ([4]; API 81.45.111, MH medium): 2 µg/mL
MIC ([4]; API 81.47.110, IST medium): 16 µg/mL
MIC ([4]; API 81.47.110, MH medium): 8 µg/mL
SMILES: CC1COc2c(N3CCN(C)CC3)c(F)cc3c(=O)c(C(=O)O)cn1c23 (centres unmarked) [ofloxacin]
NCCLS Category ([3]; API 88.03.111, IST medium): S
NCCLS Category ([3]; API 88.03.111, MH medium): S
NCCLS Category ([3]; API 88.08.056, IST medium): I
NCCLS Category ([3]; API 88.08.056, MH medium): I
NCCLS Category ([3]; CDC 2279, IST medium): S
NCCLS Category ([3]; CDC 2279, MH medium): S
NCCLS Category ([4]; API 81.45.111, IST medium): I
NCCLS Category ([4]; API 81.45.111, MH medium): S
NCCLS Category ([4]; API 81.47.110, IST medium): R
NCCLS Category ([4]; API 81.47.110, MH medium): R

SMILES: CC[C@H]1OC(=O)[C@H](C)[C@@H](O[C@H]2C[C@@](C)(OC)[C@@H](O)[C@H](C)O2)[C@H](C)[C@@H](O[C@@H]2O[C@H](C)C[C@H](N(C)C)[C@H]2O)[C@](C)(O)C[C@@H](C)C(=O)[C@H](C)[C@@H](O)[C@]1(C)O [erythromicin]
NCCLS Category ([1]; CDC 2024, IST medium): S
NCCLS Category ([1]; CDC 2024, MH medium): S
NCCLS Category ([1]; CDC 2105, IST medium): S
NCCLS Category ([1]; CDC 2105, MH medium): S
NCCLS Category ([1]; CDC 2234, IST medium): R
NCCLS Category ([1]; CDC 2234, MH medium): R
MIC ([1]; CDC 2024, IST medium): 0.5 µg/mL
MIC ([1]; CDC 2024, MH medium): 0.25 µg/mL
MIC ([1]; CDC 2105, IST medium): 0.25 µg/mL
MIC ([1]; CDC 2105, MH medium): 0.25 µg/mL
MIC ([1]; CDC 2234, IST medium): > 32 µg/mL
MIC ([1]; CDC 2234, MH medium): > 32 µg/mL
NCCLS Category ([2]; ATCC 29213, IST medium): S
NCCLS Category ([2]; ATCC 29213, MH medium): S
NCCLS Category ([2]; CDC 2194, IST medium): R
NCCLS Category ([2]; CDC 2194, MH medium): R
NCCLS Category ([2]; CDC 2215, IST medium): S
NCCLS Category ([2]; CDC 2215, MH medium): S
MIC ([2]; 12 h, CDC 2194, IST medium): > 32 µg/mL
MIC ([2]; 12 h, CDC 2194, MH medium): > 32 µg/mL
MIC ([2]; 12 h, CDC 2215, IST medium): 0.5 µg/mL
MIC ([2]; 12 h, CDC 2215, MH medium): 0.5 µg/mL
MIC [2, 6]: 0.5 µg/mL
MIC [2, 7]: 0.25 µg/mL
NCCLS Category ([5]; CDC 2073, IST medium): R
NCCLS Category ([5]; CDC 2073, MH medium): R
NCCLS Category ([5]; CDC 2230, IST medium): I
NCCLS Category ([5]; CDC 2230, MH medium): I
MIC ([5]; CDC 2073, IST medium): 16 µg/mL
MIC ([5]; CDC 2073, MH medium): 16 µg/mL
MIC ([5]; CDC 2230, IST medium): 4 µg/mL
MIC ([5]; CDC 2230, MH medium): 4 µg/mL
